Test results from patent US20050032863A1, “Method of treating or preventing central nervous system disorders with compounds having selectivity for the alpha 3 subunit of the benzodiazepine receptor” (priority 2003, published 2005).
Several values for one entry are separate records, joined by “and”; a condition that tells them apart may be missing. Identical values can stand only once.

Columns and labels:
[1] = tested on: extracellular serotonin in the striatum of rats; experiment: Microdialysis in the striatum of rats, reversal by flumazenil (Example 6); format: in vivo, rat
Experimental: The day before the experiment, male rats were anaesthetised with chloral hydrate (3.6%, 1 ml/100 g i.p.) and placed in a stereotaxic frame to implant a microdialysis guide cannula (CMA/12, Carnegie Medicine, Sweden). Scalp was incised in the median anterior-posterior direction between lambda and bregma and a small hole was drilled into the skull. The stereotaxic coordinates were AP=+1.0 mm, L=−3.0 mm from bregma and 1.5 mm from the skull surface for the striatum according to the atlas of Paxinos and Watson, (1986) (1). Dental cement (Sinfony(2)) was used to fix the guide cannula and anchor screws to the cranium. During the surgery rectal temperature was maintained at 37° C. using a heating blanket.
The day before the experiment the microdialysis probe (CMA/12, membrane length 4 mm, Carnegie Medicin, Sweden) was inserted into the striatum through the guide cannula. […] Microvials were stored in a fraction collector (CMA/170) at a temperature of 8° C. until analysed. […]
Dialysates were directly analysed by reverse-phase high-performance liquid chromatography with electrochemical detection (HPLC-EC). […]
Therefore data of each animal were expressed as percentages. Data from dialysates before administering the substances were averaged, and the mean set as 100%; all individual values were calculated accordingly.

[2] = target: T1, recombinant rat α5β2γ2 GABAA receptors (Rattus norvegicus, UniProt P19969); experiment: Whole-cell patch-clamp, modulation of GABA (EC20)-induced currents in transfected HEK 293 cells, α5β2γ2; format: cell-based
T1 construct: expressed in transfected cells; host or cells: HEK 293
Experimental: For electrophysiological recording HEK-293 cells were passaged and replated on 12-mm glass coverslips located in 9.6-cm plastic dishes filled with 10 ml of Minimum Essential Medium (MEM, Gibco) supplemented with 158 mg/l sodium bicarbonate, 2 mM glutamine (Gibco), 100 U/ml penicillin-streptomycin (Gibco), and 10% foetal calf serum (Gibco). Cultures were maintained at 37° C. in a humidified […]/5% CO2 atmosphere for 2-3 days.
Transfection with recombinant rat GABAA receptors was carried out as described in detail (Korpi and Lüddens, 1993, Lüddens and Korpi, 1995b). Briefly, HEK 293 cells were transfected in triple combinations using the phosphate precipitation method with rat GABAA receptor cDNAs in eukaryotic expression vectors (Pritchett, 1990) for the α, β and γ subunits. For optimal receptor expression, final concentrations (μg vector DNA per 9.6 cm tissue culture plate) were: α1, 2; α2 4.8; α3, 1.2; α4, 10; α5, 0.8; β2, 0.4; and γ2S, 0.3. The γ2S variant is abbreviated γ2 in the remainder of the text. To identify transfected cells all subunit combinations were co-transfected with 1 μg per plate of pNI-EGFP.
Two days after transfection single coverslips containing HEK 293 cells were placed in a recording chamber mounted on the movable stage of a fluorescence microscope (Olympus IX70) and perfused with a defined saline solution containing (in mM): 130 NaCl, 5.4 KCl, 2 CaCl2, 2 MgSO4, 10 glucose, 5 sucrose, and 10 HEPES (free acid), pH adjusted to 7.35 with about 35 mM NaOH. Transfected cells were identified by their green fluorescence due to the expression of the pNI-EGFP vector and ligand-mediated membrane currents of these cells were studied in the whole-cell configuration of the patch-clamp technique (Hamil et al., 1981). Patch-clamp pipettes were pulled from hard borosilicate capillary glass (0.5 mm ID, 1.5 mm OD, Vitrex, Science Products GmbH, Hofheim, Germany) using a horizontal puller (Sutter Instruments, CA, Model P-97) in a multi-stage process.
Seal resistances >1 GΩ were routinely obtained by applying gentle suction to the pipettes. Membrane rupture was monitored electrically as an increase in capacity. Pipette capacitance, membrane capacitance, and series resistance were electronically compensated to achieve minimal capacitative transients. A series resistance compensation of >60% was regularly used.
In all cells recorded the presence of the γ2 subunit in the heteropentamere was monitored by the application of 1 μM zolpidem plus the EC20 of GABA before testing the experimental drugs.
Responses of the cells were recorded by a patch-clamp amplifier (EPC-8, HEKA-Electronic, Lambrecht, Germany) in conjunction with a standard personal computer and the pClamp 8.1 software package (Axon Instruments, Foster City, Calif.). The standard holding-potential for the cells was −40 mV. Whole cell currents were low-pass filtered by an eight-pole Bessel filter at 5 or 3 kHz before being digitised by a Digidata 1322A interface (Axon Instruments, Foster City, Calif.) and recorded by the computer at a sampling rate of at least […].
Efficacy, potency, and GABAA receptor a subunit specificity of the new compound ELB139 was tested with the whole cell configuration of the patch-clamp technique by applying increasing drug concentration together with GABA of the approximate EC20 on green fluorescing cells. BZ binding site specificity of the new compound was tested on the same cells in an identical experimental setting with additionally applying 10 μM Ro15-1788.

T1 sequence (P19969 32-464 limits assumed): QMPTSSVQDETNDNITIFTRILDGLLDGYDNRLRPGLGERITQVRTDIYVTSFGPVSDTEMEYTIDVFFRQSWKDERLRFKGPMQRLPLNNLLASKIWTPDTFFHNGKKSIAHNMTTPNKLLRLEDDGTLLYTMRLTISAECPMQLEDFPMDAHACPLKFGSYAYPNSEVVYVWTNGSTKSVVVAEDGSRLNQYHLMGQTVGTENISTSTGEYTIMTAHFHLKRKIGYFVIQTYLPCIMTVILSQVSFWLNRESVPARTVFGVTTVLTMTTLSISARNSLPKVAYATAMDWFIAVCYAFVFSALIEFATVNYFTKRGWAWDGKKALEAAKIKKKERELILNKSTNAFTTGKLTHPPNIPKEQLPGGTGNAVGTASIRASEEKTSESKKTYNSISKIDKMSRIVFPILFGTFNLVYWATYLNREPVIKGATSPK

With `O=C1N=C(N2CCCCC2)CN1c1ccc(Cl)cc1` [ELB139, 1-(4-chlorophenyl)-4-piperidinoimidazolin-2-one] the “extracellular serotonin in the striatum compared to mean basal level” value ([1]; 30 mg/kg i.p.) was “marked increase”, the “increase of extracellular serotonin after flumazenil” value ([1]; ELB139 30 mg/kg i.p., flumazenil 10 mg/kg i.p. 40 minutes later) was “not only reversed but serotonin level even decreases below the mean basal level” and the EC50 ([2]; applied with approximate GABA EC20, read-out: EC50 (ELB139)) was 3.6 µM. For the same compound, the “effect of 10 μM Ro15-1788 on the current enhancement by the compound” value ([2]; co-applied 10 μM Ro15-1788 (flumazenil)) was “completely abolished”, the “maximal positive modulation of GABA-induced current” value ([2]; maximum at 30 μM (ELB139), at 1 μM (diazepam)) was 1.4±0.06 fold and 1.4 fold and the “Potentiation* (ELB139)” value ([2]; with GABA EC20, graphically determined) was 1.4 ± 0.06.
